This is an account of results in patent publication US20260356824A1, “COMPOUNDS FOR TREATING FIBROTIC DISEASES” (Meta-Immue Inc., priority 2023, published 2026).

By amount remaining is commonly meant the share of the starting amount still present when the sample was taken. A word on the IC50: it is the concentration that gives 50% inhibition. By inhibition is commonly meant the relative decrease from the control value, in per cent.

Each structure is given as a SMILES string.

Data set [1] in a line: Liver microsomal stability, rat. Format: in vitro ADME. The conditions noted are these: rat liver microsomes; 30 min; percent of parent remaining; read-out: Liver Microsomal stability (%), % of remaining after 30 min, Rat.
Data set [2] in a line: Liver microsomal stability, human. The class given is in vitro ADME. The conditions noted are these: human liver microsomes; 30 min; percent of parent remaining; read-out: Liver Microsomal stability (%), % of remaining after 30 min, Human. On the technique in general: Microsomes from liver hold many membrane-bound enzymes, among them those of drug oxidation.
The target in a further data set is T1, hLPAR1 (Homo sapiens, UniProt Q92633).
T1 construct: expressed in transfected cells
T1 sequence (Q92633 whole entry): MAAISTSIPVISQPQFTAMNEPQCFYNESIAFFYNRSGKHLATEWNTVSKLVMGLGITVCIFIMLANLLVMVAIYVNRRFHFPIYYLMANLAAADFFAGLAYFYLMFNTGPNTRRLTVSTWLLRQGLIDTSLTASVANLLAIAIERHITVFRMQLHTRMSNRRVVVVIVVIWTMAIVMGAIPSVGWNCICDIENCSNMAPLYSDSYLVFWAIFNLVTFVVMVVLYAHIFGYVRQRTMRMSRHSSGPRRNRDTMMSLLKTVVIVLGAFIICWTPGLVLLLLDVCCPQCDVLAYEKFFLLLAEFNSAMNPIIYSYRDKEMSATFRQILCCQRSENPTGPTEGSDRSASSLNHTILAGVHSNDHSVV
The data set can be described thus: Ca2+ Flux Assay (B103 cells stably expressing hLPAR1). The note with it: LPA-induced calcium release, Fura-2 AM, compound 20 min at RT. The class given is cell-based. An outline of the steps:
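Fura-2 AM (5 μM) loaded 40 min at RT in HBSS/20 mM HEPES/probenecid/0.3% fatty-acid-free BSA after 2 h serum starvation. Compounds preincubated 20 min at RT, then LPA […] added. Intracellular calcium mobilization read as fluorescence intensity.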
In general terms: Calcium assays in cells follow changes in intracellular calcium, usually with a dye or a luminescent sensor.

The next data set deals with A2058 cells. As to the kind of experiment: Chemotaxis Assay (LPA-induced migration of A2058 cells). The class given is cell-based. The note with it: Homo sapiens, 4 to 8 hours, crystal violet 590 nm. An outline of the steps: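 A2058 cells, starved 24 hr and treated with test compound or vehicle, were placed on a fibronectin-coated membrane ([…]) above […] in DMEM. After 4–8 h migration, migrated cells were crystal violet stained and read at 590 nm. Values are relative percentage of control.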

The target of another data set is T2, BSEP (Homo sapiens, UniProt O95342).
T2 construct: ATP-dependent uptake of radiolabelled probe substrate
T2 sequence (O95342 whole entry): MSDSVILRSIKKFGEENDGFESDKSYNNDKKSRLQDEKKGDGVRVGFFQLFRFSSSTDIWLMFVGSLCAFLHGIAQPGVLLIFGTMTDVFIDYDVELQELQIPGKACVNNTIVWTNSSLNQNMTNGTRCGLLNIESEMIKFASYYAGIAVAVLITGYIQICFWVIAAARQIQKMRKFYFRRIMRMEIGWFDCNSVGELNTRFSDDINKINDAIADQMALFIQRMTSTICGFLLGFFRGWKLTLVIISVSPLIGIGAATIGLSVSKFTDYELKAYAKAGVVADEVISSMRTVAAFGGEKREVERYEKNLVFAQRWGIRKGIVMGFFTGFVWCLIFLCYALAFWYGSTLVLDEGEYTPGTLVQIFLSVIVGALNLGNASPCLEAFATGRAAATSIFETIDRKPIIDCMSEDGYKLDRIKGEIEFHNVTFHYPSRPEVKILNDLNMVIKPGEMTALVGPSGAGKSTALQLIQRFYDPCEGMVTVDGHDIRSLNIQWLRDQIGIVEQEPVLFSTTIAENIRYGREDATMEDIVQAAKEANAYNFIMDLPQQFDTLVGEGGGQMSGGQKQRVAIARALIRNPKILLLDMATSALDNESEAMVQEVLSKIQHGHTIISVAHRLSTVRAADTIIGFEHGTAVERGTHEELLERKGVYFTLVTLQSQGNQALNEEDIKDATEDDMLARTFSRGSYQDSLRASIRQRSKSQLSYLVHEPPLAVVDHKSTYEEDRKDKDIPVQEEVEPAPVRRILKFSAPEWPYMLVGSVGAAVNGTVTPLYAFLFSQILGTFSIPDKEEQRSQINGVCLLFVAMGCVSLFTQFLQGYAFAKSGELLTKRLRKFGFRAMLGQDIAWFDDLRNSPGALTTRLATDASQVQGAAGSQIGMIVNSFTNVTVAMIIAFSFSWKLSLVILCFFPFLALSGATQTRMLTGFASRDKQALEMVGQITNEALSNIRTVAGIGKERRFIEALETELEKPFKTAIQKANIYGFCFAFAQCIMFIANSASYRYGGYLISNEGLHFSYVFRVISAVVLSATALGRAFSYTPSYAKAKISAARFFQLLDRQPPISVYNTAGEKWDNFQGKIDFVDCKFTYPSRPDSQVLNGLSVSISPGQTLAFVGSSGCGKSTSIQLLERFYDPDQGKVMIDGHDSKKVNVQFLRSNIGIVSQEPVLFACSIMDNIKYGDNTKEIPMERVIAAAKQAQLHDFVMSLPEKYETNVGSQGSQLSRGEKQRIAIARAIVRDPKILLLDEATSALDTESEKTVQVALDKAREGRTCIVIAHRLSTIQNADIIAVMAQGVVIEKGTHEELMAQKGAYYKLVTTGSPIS
The data set can be described thus: Bile Salt Export Pump (BSEP) Assay, Sf9 insect cell vesicles expressing BSEP. The class given is in vitro ADME. The conditions noted are these: 10 μM test compound, probe substrate 1 μM [3H]-taurocholic acid, 15 min incubation. The method, then:
• 1. A stock solution was prepared with the test article (Sponsor compound) in DMSO. • 2. All final assay solutions of probe substrate, reference inhibitor or test article contain 0.5% (v/v) DMSO (vehicle control). • 3. Test article concentrations in transport study were specified in the Summary Table of Experimental Conditions of this protocol.
• 1. Bovine Serum Albumin (BSA) • 2. Dimethyl sulfoxide (DMSO) • 3. BSEP Assay Uptake Buffer (10 mM HEPES-Tris pH 7.4, 0.1 M KNO3, 12.5 mM Mg(NO3)2, 50 mM sucrose) • 4. BSEP Wash Buffer (10 mM Tris-HCl pH 7.4, 0.1 M KNO3, 50 mM sucrose) • 5. BSEP Blocking Buffer (BSEP Wash Buffer+0.5 mg/mL BSA) • 6. 25 mM Mg-ATP solution • 7. 25 mM AMP solution • 8. Corning Costar 96-well flat-bottom, untreated, white Assay Plate (Corning Cat. No. 3912) • 9. Millipore MultiscreenHTs Filtration Plate, glass fiber FB—1.0/0.65 μm (Cat. No. MSFBN6B10 or glass fiber FC—1.2/0.65 μm (Cat. No. MSFCN6B10) • 10. Millipore MultiscreenHTS Vacuum Manifold (Cat. No. MSVMHTS00) • 11. Probe substrates listed in Table 1 • 12. Reference inhibitors listed in Table 1 • 13. Test articles
• 1. Test system: • a. 96-well flat bottom plate containing a suspension of vesicles and a corresponding 96-well glass fiber filtration plate. • b. Transport experiments were conducted in the Assay Uptake Buffer. • c. Transport experiment was initiated with the addition of Mg-ATP or AMP to appropriate wells. • d. Each condition was run in triplicate wells. • 2. Prepared the 96-well flat-bottom assay plate. • a. Incubated the assay plate with the Blocking Buffer for 60 min at 37 °C with orbital shaking at approximately 90 rpm. (NOTE: This is done to prevent non-specific binding of vesicles to polystyrene assay plate). • b. After 60 min, completely removed the Blocking Buffer from the assay plate. • c. The Assay Uptake Buffer solutions were added to the assay plate wells as follows: • i. For probe substrate transport assays, the Assay Uptake Buffer contained vesicles and the probe substrate at the specified concentration. • ii. For the reference inhibition assay, the Assay Uptake Buffer contained vesicles, the reference inhibitor and the probe substrate at the specified concentration in Table 1. • iii. For the test article assays, Assay Uptake Buffer contained vesicles, the test article and the probe substrate at the specified concentration in Table 1. • 3. Incubate at 37 °C with orbital shaking at approximately 90 rpm for the time period specified in Table 1 of this protocol. • 4. Using the 25 mM Mg-ATP or AMP stocks, Mg-ATP or AMP was added to test wells of flat bottom assay plate to a final concentration of 5 mM. • 5. Incubated at 37 °C with orbital shaking at approximately 90 rpm for the incubation time specified in Table 1 of this protocol. • 6. Prepared the 96-well glass fiber filtration plate: • a. Incubated the filtration plate with the Blocking Buffer for 2 min at room temperature with under no vacuum. • b. Turned on vacuum and allowed Blocking Buffer to filter through plate. • c. With vacuum on, filter plate was washed with ice cold Wash Buffer. • 7. At the end of the specified incubation time indicated in […] of this protocol, vesicle transport was quenched by adding ice cold Wash Buffer to samples in 96-well assay plate. • 8. Mixed assay samples (now diluted in Wash Buffer) with pipette and transfered 175 μL into the 96-well glass fiber filtration plate to separate vesicles from buffer by applying vacuum. • 9. Washed filter plate wells with ice cold Wash Buffer. • 10. Allowed filter plate to dry under vacuum. • 11. Transfered filters to scintillation sample plate and added 700 μL of scintillation fluid to the above samples. • 12. Counted the above samples on a 1450 Microbeta (Perkin-Elmer).
• 1. The amount of substrate was quantified with radiometric detection on a 1450 Microbeta (Perkin-Elmer). • 2. For transport study samples run in triplicate, the mean and standard deviation of the replicates were reported. • 3. […]

In the case of `Cc1noc([C@H]2CCN(c3ccc(C4(C(=O)O)CC4)cc3)[C@@H](C)C2)c1NC(=O)O[C@H](C)c1ccccc1` (single isomer, unassigned) [Compound 10], the fraction remaining at 0.5 h in data set [1] and in data set [2] was greater than 75% each time. The half-inhibitory concentration (IC50) was 10 to 200 nM at hLPAR1 and less than 100 nM with A2058 cells. For the same molecule, the inhibition at 0.25 h, 10 µM on BSEP fell in the range of 25 to 50%.
`Cc1noc([C@@H]2CCN(c3ccc(C4(C(=O)O)CC4)cc3)[C@H](C)C2)c1NC(=O)O[C@H](C)c1ccccc1` (single isomer, unassigned) [Compound 21]: the share remaining at 0.5 h in data set [1] and in data set [2] was greater than 75% in each case. The 50% inhibitory concentration (IC50) is 10 to 200 nM on hLPAR1 and less than 100 nM in the data set with A2058 cells.
For `Cn1nnc(C2CCN(c3ccc(C4(C(=O)O)CC4)cc3)CC2)c1Nc1cccc(-c2ccccc2)n1` [Compound 6], the amount remaining at 0.5 h in data set [1] and in data set [2] was greater than 75% in each case. Further, the values for the IC50 at hLPAR1 and in the data set on A2058 cells were 10 to 200 nM and 500 to 5000 nM, respectively.
Turning to `Cc1noc(N2CCC(c3ccc(C4(C(=O)O)CC4)cc3)CC2)c1NC(=O)O[C@H](C)c1ccccc1` [Compound 8, (R)-1-(4-(1-(3-methyl-4-(((1-phenylethoxy)carbonyl)amino)isoxazol-5-yl)piperidin-4-yl)phenyl)cyclopropane-1-carboxylic acid], the amount remaining at 0.5 h in data set [1] and in data set [2] was 50 to 75% throughout. In addition, the half-inhibitory concentration (IC50) on hLPAR1 was less than 10 nM; with A2058 cells, 100 to 500 nM. Also, at BSEP, the inhibition at 0.25 h, 10 µM lay in the range of 50 to 75%.
Consider `Cc1noc(C2CCN(c3ccc(C4(C(=O)NS(C)(=O)=O)CC4)cc3)CC2)c1NC(=O)O[C@H](C)c1ccccc1` [Compound 12], for which the results for the fraction remaining at 0.5 h in data set [1] and in data set [2] were 50 to 75% and greater than 75%, respectively. Also, the concentration for half-maximal inhibition (IC50) at hLPAR1 is 10 to 200 nM; in the data set with A2058 cells it was less than 100 nM. In addition, the inhibition at 0.25 h, 10 µM at BSEP fell in the range of 25 to 50%.
With `CCCN(C)C(=O)OCc1c(C)noc1C1CCN(c2ccc(C3(C(=O)NS(=O)(=O)C(F)(F)F)CC3)cc2)CC1` [Compound 13], the fraction remaining at 0.5 h in data set [1] was 50 to 75%; in data set [2], no more than 25%. In addition, the IC50 at hLPAR1 is no less than 3000 nM; with A2058 cells, no less than 5000 nM.
The corresponding values for `Cc1noc(C2CCN(c3ccc(C4(C(=O)O)CC4)cc3)CC2)c1N[C@H](C)CCc1ccccc1` [Compound 22] are 50 to 75%, 50 to 75%, 10 to 200 nM and 100 to 500 nM.
Take `Cc1noc(C2CN(c3ccc(C4(C(=O)O)CC4)cc3)C2)c1NC(=O)O[C@H](C)c1ccccc1` [Compound 23, (R)-1-(4-(3-(3-methyl-4-(((1-phenylethoxy)carbonyl)amino)isoxazol-5-yl)azetidin-1-yl)phenyl)cyclopropane-1-carboxylic acid]: the share remaining at 0.5 h in data set [1] and in data set [2] was greater than 75% throughout. The IC50 at hLPAR1 was in the range of 10 to 200 nM; in the data set on A2058 cells, 500 to 5000 nM. Further, the inhibition at 0.25 h, 10 µM on BSEP fell in the range of 25 to 50%.
With `Cc1noc(C2CCN(c3ccc(C4(C(=O)O)CC4)cc3)CC2)c1CNC(=O)O[C@@H](C)c1ccccc1` [Compound 25], the fraction remaining at 0.5 h in data set [1] and in data set [2] was greater than 75% throughout. Moreover, the IC50 is 10 to 200 nM on hLPAR1 and no less than 5000 nM in the data set on A2058 cells.
Consider `Cc1ccccc1[C@@H](C)OC(=O)Nc1c(C)noc1C1CCN(c2ccc(C3(C(=O)NS(N)(=O)=O)CC3)cc2)CC1` [Compound 35], for which the figures for the share remaining at 0.5 h in data set [1] and in data set [2] were 50 to 75% and 25 to 50%, respectively. The IC50 at hLPAR1 is less than 10 nM; in the data set on A2058 cells, less than 100 nM.
`Cc1noc(C2CCN(c3ccc(C4(C(=O)NS(=O)(=O)C(C)(C)CO)CC4)cc3)CC2)c1NC(=O)O[C@H](C)c1ccccc1` [Compound 70]: the share remaining at 0.5 h in data set [1] and in data set [2] was greater than 75% throughout. The IC50 at hLPAR1 was less than 10 nM; in the data set on A2058 cells, less than 100 nM.
On to `Cc1noc(C2CCN(c3ccc(C4(C(=O)O)CC4)cc3)CC2)c1NC(=O)O[C@H](C)c1ccccc1Cl` [Compound 74, 1-(4-{4-[4-({[(1R)-1-(2-chlorophenyl)ethoxy]carbonyl}amino)-3-methyl-1,2-oxazol-5-yl]piperidin-1-yl}phenyl)cyclopropane-1-carboxylic acid], for which the IC50 on hLPAR1 was less than 10 nM; in the data set on A2058 cells, less than 100 nM. Further, the inhibition at 0.25 h, 10 µM at BSEP is 50 to 75%.
The corresponding values for `Cc1noc(C2CCN(c3ccc(C4(C(=O)NS(=O)(=O)CC(C)(C)C(=O)O)CC4)cc3)CC2)c1NC(=O)O[C@H](C)c1ccccc1` [Compound 78, (R)-2,2-dimethyl-3-(N-(1-(4-(4-(3-methyl-4-(((1-phenylethoxy)carbonyl)amino)isoxazol-5-yl)piperidin-1-yl)phenyl)cyclopropane-1-carbonyl)sulfamoyl)propanoic acid] are less than 10 nM, less than 100 nM and 25 to 50%.
The corresponding values for `Cc1noc(C2CCN(c3ccc(C4(C(=O)NS(=O)(=O)CC(C)CO)CC4)cc3)CC2)c1NC(=O)O[C@H](C)c1ccccc1` (stereo partly drawn) [Compound 79, (1R)-1-phenylethyl N-{5-[1-(4-{1-[(3-hydroxy-2-methylpropanesulfonyl)carbamoyl]cyclopropyl}phenyl)piperidin-4-yl]-3-methyl-1,2-oxazol-4-yl}carbamate] are less than 10 nM, less than 100 nM and 25 to 50%.
The corresponding values for `Cc1noc(C2CCN(c3ccc(C4(C(=O)O)CC4)nc3)CC2)c1NC(=O)O[C@H](C)c1ccccc1` [Compound 90] are 10 to 200 nM, 100 to 500 nM and 25 to 50%.
On to `C[C@@H](OC(=O)Nc1cc(Cl)sc1C1CCN(c2ccc(C3(C(=O)O)CC3)cc2)CC1)c1ccccc1` [Compound 92, 1-(4-{4-[5-chloro-3-({[(1R)-1-phenylethoxy]carbonyl}amino)thiophen-2-yl]piperidin-1-yl}phenyl)cyclopropane-1-carboxylic acid], for which the IC50 was 10 to 200 nM at hLPAR1 and less than 100 nM in the data set with A2058 cells. Also, on BSEP, the inhibition at 0.25 h, 10 µM fell in the range of 75 to 100%.
With `C[C@@H](OC(=O)Nc1ccsc1C1CCN(c2ccc(C3(C(=O)O)CC3)cc2)CC1)c1ccccc1` [Compound 93], the values for the half-inhibitory concentration (IC50) on hLPAR1 and in the data set on A2058 cells were 10 to 200 nM and less than 100 nM, respectively. Further, at BSEP, the inhibition at 0.25 h, 10 µM lay within 50 to 75%.
For `Cc1nsc(C2CCN(c3ccc(C4(C(=O)O)CC4)cc3)CC2)c1NC(=O)O[C@H](C)c1ccccc1` [Compound 95] the same measures were 10 to 200 nM, 100 to 500 nM and 25 to 50%.
